The values that follow come from patent US4588729A, “Treating convulsions with dihydrouracil derivatives” (Kyowa Hakko Kogyo Co., Ltd., priority 1984, dated 1986).

Data set [1] relates to male dd-strain mice. The data set can be described thus: Pentetrazol-induced seizure test. The format is in vivo. To be noted: Mus musculus, po, P.O., 120 mg/kg pentetrazol s.c., suppression of clonic seizure in at least 3 of 5 mice, read-out: MED for anticonvulsive action, Pentetrazol-induced seizure test. As to the method:
(2) Pentetrazol-induced seizure test
Groups of mice, each consisting of 5 male dd-strain mice having a weight of 20±1 g were subcutaneously administered by 120 mg/kg of pentetrazol, and occurrence of clonic seizure was observed. Suppression of clonic seizure occurrence on at least three mice was regarded as effective, and MED was determined.

The nature of the next data set: Acute toxicity test. The following applies: mouse, in vivo, po; P.O., mice, suspension in 0.3% CMC, 7 days after administration.
In data set [2] the test system is male dd-strain mice. The data set is described as follows: Maximal electroshock seizure test. The following applies: Mus musculus, po, 1 h, P.O., shock 60 minutes after administration, suppression of tonic extensor in at least 3 of 5 mice, read-out: MED for anticonvulsive action, Maximal electroshock seizure test. The class given is in vivo. On the procedure: (1) Maximal electroshock seizure test
Groups of mice, each consisting of 5 male dd-strain mice having a weight of 20±1 g were orally administered with some of said compounds and 60 minutes thereafter, an electric current of 2,000 V, 50 mA was passed to both eyes of the mouse for 0.2 seconds to observe occurrence of tonic extensor. Suppression of tonic extensor occurrence on at least three mice was regarded as effective, and MED (minimum effective dose) for suppressing the convulsion was determined.
In general terms: The maximal electroshock test induces tonic seizures with an electrical stimulus.

The test system of the next data set is male Carworth Farm mice. The data set is described as follows: Anticonvulsive action: MES (maximum electroconvulsive procedure) and subcutaneous pentylenetetrazole seizure tests, combined evaluation. The class given is in vivo. To be noted: Mus musculus, sc, dose levels 30, 100, 300 (600) mg/kg, MES and 85 mg/kg s.c. pentylenetetrazole tests, read-out: Evaluation (anticonvulsant activity class). As to the method:
The present test was performed in male Carworth Farm mice. All compounds were tested at least 3 dose levels (30, 100, 300 mg/kg) with a fourth dose of 600 mg/kg being performed when there was sufficient quantity available. The vehicles used to solubilize each compound were 30% aqueous polyethylene glycol solution (Compound Nos. 31 to 38, 45, 47 and 48) and 0.9% saline (Compound Nos. 44 and 46). The following two tests were performed. MES (Maximum electroconvulsive procedure) Maximal electroshock seizures were elicited with a 60 cycle alternating current of 50 mA intensity (5-7 times that necessary to elicit minimal electroshock seizures) delivered for 0.2 sec via corneal electrodes. A drop of 0.9% saline was instilled in the eye prior to application of the electrodes in order to prevent the death of the animal. Abolition of the hind limb tonic extension component of the seizure was defined as protection and results were expressed as: [formula] First, 85 mg/kg of pentylenetetrazole (produces seizures in greater than 95% of mice) was administered as a 0.5% solution subcutaneously in the posterior midline. […] Failure to observe even a threshold seizure (a single episode of clonic spasms of at least 5 sec duration) was defined as protection and the results were expressed as: [formula] (2) Evaluation method All results were classified into one of the following three evaluation standard: .circle.1 Anticonvulsant activity at 100 mg/kg or less .circle.2 Anticonvulsant activity at doses greater than 100 mg/kg, or anticonvulsant activity at 100 mg/kg not reinforced by similar activity at 300 mg/kg .circle.3 No anticonvulsant activity at doses up to and including 300 mg/kg

Broadly, the LD50 is the dose expected to kill half of the subjects tested. Read a low LD50 as a more toxic substance. Regarding `CN1C(=O)CCN(c2ccc(Cl)cc2)C1=O` [Compound 3, 1-(4-chlorophenyl)-3-methyl-dihydrouracil], the results for the minimal effective dose in the data set on male dd-strain mice [1] and with male dd-strain mice [2] were 200 mg/kg and 75 mg/kg, respectively. The molecule also yielded a median lethal dose (LD50) at 168 h in the data set “Acute toxicity test” greater than 300 mg/kg.
Take `CN1CCC(=O)N(c2cccc3ccccc23)C1=O` [Compound 47, 1-methyl-3-α-naphthyl-dihydrouracil]: the minimal effective dose was 200 mg/kg in the data set on male dd-strain mice [1], no more than 100 mg/kg in the data set with male Carworth Farm mice and 100 mg/kg in the data set with male dd-strain mice [2]. Besides, in the data set “Acute toxicity test”, the LD50 at 168 h was greater than 300 mg/kg.
`CN1CCC(=O)N(c2cc(Cl)ccc2Cl)C1=O` [Compound 24, 3-(2,5-dichlorophenyl)-1-methyl-dihydrouracil]: the minimal effective dose with male dd-strain mice [1] and with male dd-strain mice [2] was 100 mg/kg each time. This molecule also returned an LD50 at 168 h in “Acute toxicity test” greater than 300 mg/kg.
In the case of `CN1CCC(=O)N(c2ccccc2Cl)C1=O` [Compound 29, 3-(2-chlorophenyl)-1-methyl-dihydrouracil], the minimal effective dose in the data set on male dd-strain mice [1] and with male dd-strain mice [2] was 150 mg/kg each time. The molecule further yielded a median lethal dose (LD50) at 168 h in “Acute toxicity test” greater than 300 mg/kg.
With `Cc1cc(Cl)ccc1N1CCC(=O)N(C)C1=O` [Compound 9, 1-(2-methyl-4-chlorophenyl)-3-methyl-dihydrouracil], the minimal effective dose in the data set on male dd-strain mice [1] came out at 200 mg/kg; in the data set on male dd-strain mice [2], 150 mg/kg. In the data set “Acute toxicity test”, the LD50 at 168 h was greater than 300 mg/kg.
`CN1CCC(=O)N(c2ccccc2N)C1=O.Cl` [Compound 46, 3-(2-aminophenyl)-1-methyl-dihydrouracil hydrochloride]: the minimal effective dose in the data set on male Carworth Farm mice was greater than 100 mg/kg.
As for `CN1CCC(=O)N(c2cccc(Cl)c2Cl)C1=O` [Compound 34, 3-(2,3-dichlorophenyl)-1-methyl-dihydrouracil], the minimal effective dose in the data set with male dd-strain mice [1] is 300 mg/kg; in the data set on male Carworth Farm mice it was no more than 100 mg/kg; with male dd-strain mice [2], 150 mg/kg. This molecule had an LD50 at 168 h in the data set “Acute toxicity test” greater than 300 mg/kg.
In the case of `Cc1cccc(Cl)c1N1C(=O)CCN(C)C1=O` [Compound 37, 3-(2-chloro-6-methylphenyl)-1-methyl-dihydrouracil], the minimal effective dose in the data set on male Carworth Farm mice was greater than 100 mg/kg.
With `CN1CCC(=O)N(c2ccc(Cl)cc2Cl)C1=O` [Compound 36, 3-(2,4-dichlorophenyl)-1-methyl-dihydrouracil], the minimal effective dose with male dd-strain mice [1] is 200 mg/kg; in the data set with male Carworth Farm mice it was no more than 100 mg/kg; in the data set with male dd-strain mice [2] it was 100 mg/kg. Also, the LD50 at 168 h in the data set “Acute toxicity test” was greater than 300 mg/kg.
For `CN1CCC(=O)N(c2ccccc2C(F)(F)F)C1=O` [Compound 35, 1-methyl-3-(2-trifluoromethylphenyl)-dihydrouracil], the minimal effective dose in the data set on male Carworth Farm mice was greater than 100 mg/kg.
As to `CN1C(=O)CCN(c2ccc(Cl)cc2Cl)C1=O` [Compound 31, 1-(2,4-dichlorophenyl)-3-methyl-dihydrouracil], the values for the minimal effective dose with male dd-strain mice [1], in the data set on male Carworth Farm mice and with male dd-strain mice [2] were 100 mg/kg, no more than 100 mg/kg and 100 mg/kg, respectively. Also, the LD50 at 168 h in the data set “Acute toxicity test” is greater than 300 mg/kg.
Consider `CN1CCC(=O)N(c2ccccc2[N+](=O)[O-])C1=O` [Compound 45, 1-methyl-3-(2-nitrophenyl)-dihydrouracil], for which the minimal effective dose with male Carworth Farm mice is greater than 100 mg/kg.
For `CN1C(=O)CCN(c2ccc(C(F)(F)F)cc2)C1=O` [Compound 33, 3-methyl-1-(4-trifluoromethylphenyl)-dihydrouracil], the minimal effective dose is 300 mg/kg in the data set with male dd-strain mice [1], no more than 100 mg/kg in the data set with male Carworth Farm mice and 100 mg/kg in the data set on male dd-strain mice [2]. The LD50 at 168 h in the data set “Acute toxicity test” is greater than 300 mg/kg.
On to `CCOC(=O)c1ccccc1N1C(=O)CCN(C)C1=O` [Compound 48, 3-(2-ethoxycarbonylphenyl)-1-methyl-dihydrouracil], for which the minimal effective dose in the data set with male Carworth Farm mice was no more than 100 mg/kg.
Still for that read-out and setting: to `CN1CCC(=O)N(c2ccccc2F)C1=O` [Compound 38, 3-(2-fluorophenyl)-1-methyl-dihydrouracil] belongs greater than 100 mg/kg; to `O=C1CCN(c2ccc(Cl)cc2)C(=O)N1` [Compound 32, 1-(4-chlorophenyl)-dihydrouracil], greater than 100 mg/kg.
For the molecule `CN1C(=O)CCN(c2ccc(N)cc2)C1=O.Cl` [Compound 44, 1-(4-aminophenyl)-3-methyl-dihydrouracil hydrochloride], the minimal effective dose in the data set on male Carworth Farm mice is no more than 100 mg/kg.
Regarding `CN1C(=O)CCN(c2cccc(C(F)(F)F)c2)C1=O` [Compound 7, 3-methyl-1-(3-trifluoromethylphenyl)-dihydrouracil], the minimal effective dose with male dd-strain mice [1] and in the data set on male dd-strain mice [2] was 100 mg/kg in each case. In addition, the LD50 at 168 h in “Acute toxicity test” was greater than 1000 mg/kg.
